In general, IC50 refers to the point on the concentration scale where inhibition reaches its midpoint.

Molecules are shown by their SMILES.

Test [1] has as its target T1, CXCR7 receptor (Homo sapiens (Human), UniProt P25106). Description: Serum Binding Analysis: displacement of 125I SDF-1 from CXCR7 in 100% human serum. Particulars: 100% human serum (human AB serum with 10 mM HEPES), MCF-7 and/or MDA-MB-435S CXCR7 transfected cells, 125I SDF-1, 3 hrs at 4° C.; read-out: Avg Ser IC50. As to the method:
(§1) The ability of the compounds to displace the labeled chemokine from the CXCR7 receptor sites at multiple concentrations was then determined with the screening process.
(§2) ^125I-labeled SDF-1 was purchased from Perkin-Elmer Life Sciences, Inc. (Boston, Mass.). The MCF-7 (adenocarcinoma; mammary gland) cell line was obtained from the American Type Culture Collection (ATCC, Manassas, Va.) or and was cultured in DMEM (Mediatech, Herndon, Va.) supplemented with 10% fetal bovine serum (FBS) (HyClone Logan, Utah) and bovine insulin (0.01 mg/mL) (Sigma, St. Louis, Mo.) at 37° C. in a humidified incubator at a 5% CO2/air mixture. CXCR7 transfected MDA-MB-435S were produced as described below. MDA-MB-435 S human breast cancer line, was purchased from ATCC, and cultured in DMEM/10% FBS medium. The complete coding sequence of the gene encoding CXCR7 (a.k.a. CCXCKR2, hRDC1), was isolated from MCF-7 cells using MACs mRNA isolation kit (Miltenyi Biotec, Auburn, Calif.). DNA contamination was removed by DNase digestion via RNeasy columns (Qiagen, Inc., Valencia, Calif.) and cDNA was generated using GeneAmp RNA PCR Core Kit (Applied Biosystems, Foster City, Calif.). PCR of cDNA samples was performed using Taq PCR Master Mix kit (Qiagen, Inc.) and hRDC1 primers harboring 5′ and 3′ Not I sites (hRDC1F 5′ […]-3′, hRDC1R 5′-[…]-3′) Not I digested PCR product was ligated into Not I digested pcDNA3.1 (+)(Invitrogen, Carlsbad, Calif.) and screened for orientation and sequence confirmed. Plasmid DNA was then isolated from overnight bacterial cultures by Maxiprep (Qiagen, Inc.). Plasmid DNA (10 μg) was added to MDA-MB-435s cells and cells were electroporated (0.22 kV, 960 uF) via Gene Pulser (Biorad laboratories, Hercules, Calif.). 48 hr post-electroporation, cells were transferred to selection medium (600 ug/ml G418).
In order to more properly assess the binding efficacy of the compounds, radioligand binding assays were carried out in the presence of 100% human serum to more accurately reflect the in vivo environment. […] Target compounds were tested to determine their ability to bind with CXCR7 sites on MCF-7 and/or MDA-MB-435S CXCR7 transfected cells. Efficiency-maximized radioligand binding using filtration protocols as described in Dairaghi D J, et al., HHV8-encoded vMIP-I selectively engages chemokine receptor CCR5. Agonist and antagonist profiles of viral chemokines., J. Biol. Chem. 1999 Jul. 30; 274(31): 21569-74 and Gosling J, et al., Cutting edge: identification of a novel chemokine receptor that binds dendritic cell- and T cell-active chemokines including ELC, SLC, and TECK., J. Immunol. 2000 Mar. 15; 164(6):2851-6 was used.
In these assays, MCF-7 and/or MDA-MB-435S cells were interrogated with the target compounds and the ability of these compounds to displace 125 I radiolabeled SDF-1 was assessed using the protocol described in Dairaghi and Gosling. The target compounds were added to the plate to the indicated concentration followed by addition of cells and radiolabeled chemokine (125I SDF-1), both in the following medium (human AB serum with 10 mM HEPES added to stabilize at pH 7.4). All assays were then incubated for 3 hrs at 4° C. with gentle agitation. Following incubation in all binding assays, reactions were aspirated onto PEI-treated GF/B glass filters (Packard) using a cell harvester (Packard) and washed twice (25 mM HEPES, 500 mM NaCl, 1 mM CaCl2, 5 mM MgCl2, adjusted to pH 7.1). Scintillant (MicroScint 10, Packard) was added to the wells, and the filters were counted in a Packard Topcount scintillation counter. Data were analyzed and plotted using GraphPad Prism (GraphPad Software).
(In general: In a radioligand displacement assay an active substance lowers the binding of a labelled ligand.)

The test system of test [2] is C6 cells implanted into the brains of Sprague-Dawley rats. The experiment in a line: Rat C6 model of glioblastoma. The test is classed as in vivo. Particulars: tumors irradiated after 7 days with 5-20 Gy, then treated with compound. As to the method:
Many tumor models in animals are known in the art, and may be employed to evaluate a compound of instance. For instance, in a rat C6 model of glioblastoma, 1×10^6 C6 cells were implanted by stereotactic injection into the into the brains of Sprague-Dawley rats. After 7 days tumors were irradiated with between 5-20 Gy of radiation. Following irradiation rats were treated (eg via subcutaneous, intraperitoneal, oral, parenteral or other route) with compound or vehicle control and tumors are allowed to progress. Animals were followed until death or loss of >20% weight, or removed for tumor induced neurodeficits eg seizures and immobility in according with appropriate regulations and standards.

In test [3] the target is T1, CXCR7 receptor. The experiment in a line: Buffer Binding Analysis: displacement of 125I-labeled SDF-1 from CXCR7 on cells. To be noted: buffer binding medium, MCF-7 and/or MDA-MB-435S CXCR7 transfected cells, 125I SDF-1, 3 hr at 4° C.; read-out: Avg Bind IC50. As to the method:
as §1, §2
Target compounds can be tested to determine their ability to bind with CXCR7 sites on MCF-7 and/or MDA-MB-435S CXCR7 transfected cells. Efficiency-maximized radioligand binding using filtration protocols as described in Dairaghi D J, et al., HHV8-encoded vMIP-1 selectively engages chemokine receptor CCR5. Agonist and antagonist profiles of viral chemokines., J. Biol. Chem. 1999 Jul. […]
In these assays, MCF-7 and/or MDA-MB-435S cells are interrogated with the target compounds and the ability of these compounds to displace ^125I radiolabeled SDF-1 assessed using the protocol described in Dairaghi and Gosling. […] Scintillant (MicroScint 10, Packard) is added to the wells, and the filters counted in a Packard Topcount scintillation counter. Data are analyzed and plotted using GraphPad Prism (GraphPad Software).

T1 sequence (P25106 whole entry): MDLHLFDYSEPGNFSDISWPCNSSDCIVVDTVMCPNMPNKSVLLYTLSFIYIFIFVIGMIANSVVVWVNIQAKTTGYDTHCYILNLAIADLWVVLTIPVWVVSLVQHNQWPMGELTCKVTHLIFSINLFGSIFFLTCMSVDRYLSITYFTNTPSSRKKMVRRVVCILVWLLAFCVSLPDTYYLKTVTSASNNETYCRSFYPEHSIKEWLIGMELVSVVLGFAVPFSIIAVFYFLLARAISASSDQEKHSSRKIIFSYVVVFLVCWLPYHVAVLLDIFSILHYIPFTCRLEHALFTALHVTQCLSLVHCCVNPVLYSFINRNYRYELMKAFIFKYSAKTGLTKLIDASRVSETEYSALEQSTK

On to `O=C(N[C@@H]1CCN(c2nccn3ccnc23)C1)c1ncn(-c2ccccc2)n1` [Compound 1.027], for which the IC50 at CXCR7 receptor [1] was 500 to 2500 nM. For `O=C(N[C@H]1CCN(c2nccn3ccnc23)C1)c1csc(N2CCC3(CC3)C(O)C2)n1` (stereo partly shown) [Compound 1.047], the IC50 at CXCR7 receptor [1] lay in the range of 2500 to 15000 nM.

With `CN(C)c1cnc(C(=O)N[C@H]2CCN(c3nccn4cccc34)C2)nc1` [Compound 1.049], the IC50 at CXCR7 receptor [1] is at most 500 nM. As for `O=C(N[C@H]1CCN(c2nccn3ccnc23)C1)c1ncn(-c2ccc(F)cc2)n1` [Compound 1.090], the “antitumor activity (delay in tumor growth vs vehicle treated control; Kaplan Meier analysis of survival)” value in test [2] was “profound antitumor activity”.

In the case of `Cc1ccn2ccnc(N3CC[C@H](NC(=O)c4csc(N5CCC(O)CC5)n4)C3)c12` [Compound 1.097], the IC50 at CXCR7 receptor [1] and on CXCR7 receptor [3] was at most 500 nM each time. Regarding `O=C(N[C@H]1CCN(c2nccn3cccc23)C1)c1csc(N2CCC(O)CC2)n1` [Compound 1.098], the IC50 at CXCR7 receptor [1] and on CXCR7 receptor [3] was at most 500 nM each time. Regarding `O=C(N[C@H]1CCN(c2nccn3ccnc23)C1)c1noc(-c2ccccc2)n1` [Compound 1.121], the IC50 at CXCR7 receptor [1] and on CXCR7 receptor [3] was at most 500 nM throughout. `O=C(N[C@H]1CCN(c2nccn3cnnc23)C1)c1ncn(-c2ccccc2)n1` [Compound 1.127]: the IC50 at CXCR7 receptor [1] lay in the range of 500 to 2500 nM. As to `O=C(N[C@H]1CCN(c2nccn3cccc23)C1)c1ccn(-c2ccc(F)cc2)n1` [Compound 1.128], the IC50 at CXCR7 receptor [1] and on CXCR7 receptor [3] was at most 500 nM throughout.

These data come from patent US11059825B2, “CXCR7 antagonists” (CHEMOCENTRYX, INC., priority 2012, dated 2021).
